US20260216137A1, “COMPOSITION FOR PREVENTING OR TREATING INFLAMMATORY SKIN DISEASES,CONTAINING 1H-PYRAZOLE-3-AMIDE COMPOUND DERIVATIVE” (AJOU UNIVERSITY INDUSTRY-ACADEMIC COOPERATION FOUNDATION, priority 2023, published 2026)

Columns and labels:
Format in all cases: in vivo
[1] = system: psoriasis mouse model; test: Psoriasis mouse model (Aldara cream): PASI score and spleen weight; details: Aldara cream psoriasis mice; intraperitoneal daily, Compound 1 20 mg/kg, Compound 2 10 mg/kg; FIG. 2
Method: (§1) The hair on the backs of 7-week-old mice was removed, and then 62.5 mg of Aldara cream was applied daily for 4 days. 1% DMSO and 5% kolliphor in PBS were mixed to be injected into the vehicle intraperitoneally daily. 20 mg/kg of Compound 1, 10 mg/kg of Compound 2, and 10 mg/kg of MTx were prepared in body weight×[…], which was injected intraperitoneally daily. After injection, the mice were left for 30 minutes for sufficient suppression of cannabinoid receptor 1, applied with Aldara cream, and then sacrificed on day 5 from day 1 at which the Aldara cream was first applied, and skin tissues were made into paraffin blocks. These were evenly cut into 4 μm thick pieces, and immunochemical staining was performed.

[2] = system: psoriasis mouse model; test: Psoriasis mouse model: skin thickness by hematoxylin/eosin staining; details: Aldara cream psoriasis mice; intraperitoneal daily, Compound 1 20 mg/kg, Compound 2 10 mg/kg; FIG. 3
Method: as §1
(§2) The slides were placed in a 60° C. oven for 1 hour, rinsed with xylene solution for 5 minutes, 100% EtOH for 5 minutes, 70% EtOH for 5 minutes, distilled water, and PBS, and then immersed in hematoxylin for 10 seconds and eosin for 3 seconds. Afterwards, they were rinsed with 70% EtOH and 100% EtOH, immersed in xylene for 20 seconds, sprayed with mounting solution, and covered with a cover glass. Each section of the skin tissue was photographed using a Leica microscope and then quantified by setting three sections per tissue as the average.

[3] = system: TNF-α; test: Psoriasis mouse model: TNF-α expression by immunohistochemical staining; details: Aldara cream psoriasis mice; intraperitoneal daily, Compound 1 20 mg/kg, Compound 2 10 mg/kg; FIG. 4
Method: as §1
(§3) For immunohistochemical staining, the slides were placed in a 60° C. oven for 1 hour, rinsed with xylene solution for 5 minutes, 100% EtOH for 5 minutes, 70% EtOH for 5 minutes, distilled water, and PBS, then immersed in citrate buffer, placed in a 100° C. oven for 30 minutes, and slowly cooled at room temperature for 45 minutes. After rinsing with distilled water, the slides were soaked in PBS for 5 minutes, sprayed with 0.25% TritonX-100, and left for 10 minutes to disrupt the cell membrane and allow the antibodies to penetrate. […]
(§4) The signals of TNF-α and IL-1B, stained brown, were quantified through immunohistochemical staining.

[4] = system: IL-1ß; test: Psoriasis mouse model: IL-1β expression by immunohistochemical staining; details: Compound 1 20 mg/kg; for expression level of IL-1ß in the epidermis compared to vehicle group: Aldara cream psoriasis mice, intraperitoneal daily, Compound 2 10 mg/kg, FIG. 5
Method: as §1
For immunohistochemical staining, the slides were placed in a 60° C. oven for 1 hour, rinsed with xylene solution for 5 minutes, 100% EtOH for 5 minutes, 70% EtOH for 5 minutes, distilled water, and PBS, then immersed in citrate buffer, placed in a 100° C. oven for 30 minutes, and slowly cooled at room temperature for 45 minutes. After rinsing with distilled water, the slides were soaked in PBS for 5 minutes, sprayed with 0.25% TritonX-100, and left for 10 minutes to disrupt the cell membrane and allow the antibodies to penetrate. After rinsing with 0.1% Tween 20 in PBS (hereinafter referred to as PBST), hydrogen peroxide block buffer (abcam59717) was sprayed and left for 10 minutes. Afterwards, after rinsing with PBST, the slides were sprayed with 150 μl of normal blocking serum (VectastatinABC kit, PK-4001) mixed in 10 ml of PBS. The primary antibody was mixed with R.T.U animal free block and diluent (SP-5035) in 1:500, spread on the slides, and reacted in a refrigerator at 4° C. for 14 hours. After rinsing with PBST, the secondary antibody was applied for 1 hour and then HRP (VectastatinABC reagent) for 30 minutes. […]
as §4

[5] = system: contact dermatitis mouse model; test: Contact dermatitis mouse model (oxazolone on ears): symptoms of dermatitis; details: oxazolone contact dermatitis mice; intraperitoneal daily, Compound 2 20 mg/kg, Compound 1 10 mg/kg; FIG. 6
Method: (§5) After removing hair from the ears of 7-week-old mice, on the day after hair removal (day 1), oxazolone (4-ethoxymethylene-2-phenyl-2-oxazolin-5-one, cat #E0753-1G, sigma-Aldrich) was mixed in acetone and olive oil in a concentration of 2%, which was then applied to the inner and outer sides of the ears by 5 μl each. 1% DMSO and 5% kolliphor in PBS were mixed to be injected into the vehicle intraperitoneally daily. Intraperitoneal injection was conducted daily by 20 mg/kg for Compound 2 and 10 mg/kg for Compound 1 with a 30 interval for sufficient suppression of cannabinoid receptor 1 after the injection, and then the size of the ears was measured, followed by application of oxazolone (on days 1 and 6). On day 6, 1% oxazolone was prepared and applied to the inner and outer side of the ears by 5 μl each, and on day 7, the mice were sacrificed, with the ears formed into paraffin blocks and then cut into 4 μm thick pieces to be placed on slides.
The 2% oxazolone used on day 1 was finally prepared in a volume of 800 μl for 20 mice, 16 mg of oxazolone was first dissolved in 160 μl of olive oil, then 640 μl of acetone was additionally mixed, and 10 μl of the mixture was applied on both ears, 5 μl for the front and 5 μl for the back per ear. […]

[6] = system: contact dermatitis mouse model; test: Contact dermatitis mouse model: ear skin thickness by hematoxylin/eosin staining; details: oxazolone contact dermatitis mice; intraperitoneal daily, Compound 2 20 mg/kg, Compound 1 10 mg/kg; FIG. 7
Method: as §5, with “slides. […]” for “slides.”
as §2, with “Afterwards, they were rinsed with 70% EtOH and 100% EtOH, immersed in xylene for 20 seconds, sprayed with mounting solution, and covered with a cover glass.” left out, “of” for “of the”

[7] = system: IL-1B; test: Contact dermatitis mouse model: IL-1β expression by immunohistochemical staining; details: oxazolone contact dermatitis mice; intraperitoneal daily, Compound 2 20 mg/kg, Compound 1 10 mg/kg; FIG. 8
Method: as §3, with “penetrate. After rinsing with 0.1% Tween 20 in PBS (hereinafter referred to as PBST), hydrogen peroxide block buffer (abcam59717) was sprayed and left for 10 minutes.” for “penetrate.”
(§6) After removing hair from the ears of 7-week-old mice, on the day after hair removal (day 1), oxazolone (4-ethoxymethylene-2-phenyl-2-oxazolin-5-one, cat #E0753-1G, sigma-Aldrich) was mixed in acetone and olive oil in a concentration of 2%, which was then applied to the inner and outer sides of the ears by 5 μl each. […] Intraperitoneal injection was conducted daily by 20 mg/kg for Compound 2 and 10 mg/kg for Compound 1 with a 30 interval for sufficient suppression of cannabinoid receptor 1 after the injection, and then the size of the ears was measured, followed by application of oxazolone (on days 1 and 6). […]

[8] = system: IL-17A; test: Contact dermatitis mouse model: IL-17A expression by immunohistochemical staining; details: oxazolone contact dermatitis mice; intraperitoneal daily, Compound 2 20 mg/kg, Compound 1 10 mg/kg; FIG. 9
Method: as §3, with “penetrate. After rinsing with 0.1% Tween 20 in PBS (hereinafter referred to as PBST), hydrogen peroxide block buffer (abcam59717) was sprayed and left for 10 minutes.” for “penetrate.”
as §6

Row | SMILES | PASI score compared to vehicle group [1] | spleen weight compared to vehicle group [1] | thickness of the epidermis compared to vehicle group [2] | expression level of TNF-α in the epidermis compared to vehicle group [3] | expression level of IL-1ß in the epidermis compared to vehicle group [4] | symptoms of contact dermatitis compared to vehicle group [5] | thickness of the ear skin compared to vehicle group [6] | expression level of IL-1B in the epidermis compared to vehicle group [7] | expression level of IL-17A compared to vehicle group [8] | inhibitory effect on inflammatory factor expression, Compound 1 versus Compound 2 ([4]; psoriasis mice, comparison stated after the TNF-α and IL-1ß results, Compound 2 10 mg/kg intraperitoneal)
1 | Cc1c(/C=C/C(=O)NCc2cccc(Cl)c2)nn(-c2ccc(Cl)cc2Cl)c1-c1ccc(Cl)cc1 [Compound 2, (E)-N-(3-chlorobenzyl)-3-(5-(4-chlorophenyl)-1-(2,4-dichlorophenyl)-4-methyl-1H-pyrazol-3-yl) acrylamide] | lower | decrease | significantly reduced | significantly reduced | significantly reduced | reduced | significantly reduced | significantly reduced | significantly reduced | –
2 | Cc1c(C(=O)C(=O)NCCO)nn(-c2ccc(Cl)cc2Cl)c1-c1ccc(Cl)cc1 [Compound 1, 2-(5-(4-chlorophenyl)-1-(2,4-dichlorophenyl)-4-methyl-1H-pyrazol-3-yl)-N-(2-hydroxyethyl)-2-oxoacetamide] | lower | decrease | significantly reduced | significantly reduced | significantly reduced | reduced | significantly reduced | significantly reduced | significantly reduced | higher than that of Compound 2
